Data taken from the NIST ThermoML archive (doi:10.1021/je1011136).
± gives the expanded uncertainty stated by the source.

Assays:
[1] = Crystal; DTA
[2] = Molar enthalpy of transition or fusion; conditions: Crystal; DSC

Normal melting temperature [1]: 59.4 ± 1.1 °C
Molar enthalpy of transition or fusion [2]: 19 ± 0.57 kJ/mol
SMILES: COc1cc(CNC(=O)CCCCCCC(C)C)ccc1O [N-(4-hydroxy-3-methoxybenzyl)-8-methylnonanamide]
